Laboratory results from patent US12097177B2, “Therapeutic method for cat with chronic kidney disease” (Toray Industries, Inc., priority 2021, dated 2024).

System: cats with CKD
Assay: Retrospective observation study: survival period / overall survival rate (all-cause death), BPS therapy vs No BPS therapy
Assay type: in vivo, cat
Conditions: for average survival period / median survival period: Kaplan-Meier
Description: Based on the drug prescription records, cats were divided into two groups: a BPS therapy group consisting of 17 cats; and a BPS therapy-free group consisting of 67 cats, and baseline characteristics and the survival periods were compared and analyzed retrospectively. To the cats in the BPS therapy group, BPS drugs for veterinary use, RAPROS (trademark) (Toray Industries, Inc.), were administered while adjusting the amount of BPS to 20.0 to 49.1 μg/kg body weight/day and the median to 31.4 μg/kg body weight/day twice daily during or after morning and evening feeding occasions. By designating all-cause death as the outcome, the start date of treatment as the point of origin for the cats in the BPS therapy group, and the start date of observation as the point of origin for the cats in the No BPS therapy group based on the death records, the periods (months) before the outcome was observed were recorded. In analysis, the 2-year overall survival rates (%) of the BPS therapy group and of the No BPS therapy group, the standard errors thereof, the 95% confidence intervals, and the comparison of the 2-year overall survival rates (%) between the groups were calculated. […] Differences in the overall survival rates were assessed by the log rank test, the Cochran-Mantel-Haenszel test, by setting significant level at a two-tailed P-value of <0.05. […]
From among the cats with CKD, the data sets of […] having body weight of less than 3.5 kg were extracted, and the cats were divided into two groups: a BPS therapy group consisting of 19 cats; and a BPS therapy-free group consisting of 40 cats. In the same manner as described above, the 3-year overall survival rates (%) and the average survival periods were compared between the groups.

[1] = cats with CKD having body weight of less than 3.5 kg
[2] = stage 3 and body weight of less than 4.2 kg

CC#CCC(C)[C@H](O)/C=C/[C@@H]1[C@H]2c3cccc(CCCC(=O)[O-])c3O[C@H]2C[C@H]1O.[Na+] (stereo partly shown) [BPS, Beraprost sodium]
3-year overall survival rate of BPS therapy group relative to No BPS therapy group [1]: 2.90 times | average survival period of BPS therapy group relative to No BPS therapy group [1]: 1.66 times | 3-year overall survival rate (cats with CKD, serum creatinine 1.6 to 2.8 mg/dL (stage 2)): 52.2% | 3-year overall survival rate (cats with CKD, serum creatinine 2.9 to 5.0 mg/dL (stage 3)): 33.5% | 2-year overall survival rate (cats with CKD, serum creatinine higher than 5.0 mg/dL (stage 4), BPS 20.0 to 49.1 μg/kg body weight/day, twice daily): 25.9% | 3-year overall survival rate of BPS therapy group relative to No BPS therapy group (stage 2): 0.72 times | average survival period of BPS therapy group relative to No BPS therapy group (stage 2): 0.90 times | average survival period (stage 2): 31.5 months | effect on overall survival rate or observed survival rate (stage 2 before initiation of administration): no effects of BPS administration to improve the overall survival rate or the observed survival rate were observed | average survival period of BPS therapy group relative to No BPS therapy group (stage 3): 1.54 times | 3-year overall survival rate of BPS therapy group relative to No BPS therapy group (stage 3 (Example 4)): 1.85 times | 3-year overall survival rate (stage 3 (serum creatinine 2.9 to 5.0 mg/dL) and body weight of less than 4.2 kg): 28.0% | average survival period (stage 3): 25.3 months | median survival period (stage 3): 23.4 months | average survival period of BPS therapy group relative to No BPS therapy group [2]: 1.54 times | 3-year overall survival rate of BPS therapy group relative to No BPS therapy group (stage 3 and body weight of less than 4.2 kg (Example 6)): 2.77 times | effect on overall survival rate or observed survival rate (stage 3 and body weight of less than 4.2 kg before initiation of administration): effects of BPS administration to improve the overall survival rate or the observed survival rate were observed | average survival period [2]: 22.4 months | median survival period [2]: 19.8 months | effect on overall survival rate or observed survival rate (stage 3 before initiation of administration): effects of BPS administration to improve the overall survival rate or the observed survival rate were observed | 2-year overall survival rate of BPS therapy group relative to No BPS therapy group (stage 4): 4.80 times | average survival period of BPS therapy group relative to No BPS therapy group (stage 4): 2.43 times | average survival period (stage 4): 14.1 months | median survival period (stage 4): 10.2 months | effect on overall survival rate or observed survival rate (stage 4 before initiation of administration): effects of BPS administration to improve the overall survival rate or the observed survival rate were observed
